27 compounds from patent US7531553B2, “Heterocyclic compounds and methods of use” (Amgen Inc., priority 2003, dated 2009) can be followed below.

For the test, the system named is Human Umbilical Vein Endothelial cells. Kind of test: HUVEC proliferation assay (VEGF-stimulated). In kind it is cell-based. As to conditions: VEGF 50 ng/mL final, 72 h incubation, CyQuant dye, read-out: inhibited VEGF-stimulated HUVEC proliferation at a level (IC50). Here is the method:
Human Umbilical Vein Endothelial cells are purchased from Clonetics, Inc., as cryopreserved cells harvested from a pool of donors. These cells, at passage 1, are thawed and expanded in EBM-2 complete medium, until passage 2 or 3. The cells are trypsinized, washed in DMEM+10% FBS+antibiotics, and spun at 1000 rpm for 10 min. Prior to centrifugation of the cells, a small amount is collected for a cell count. After centrifugation, the medium is discarded, and the cells are resuspended in the appropriate volume of DMEM+10% FBS+antibiotics to achieve a concentration of 3×10^5 cells/mL. Another cell count is performed to confirm the cell concentration. The cells are diluted to 3×10^4 cells/mL in DMEM+10% FBS+antibiotics, and 100 μL of cells are added to a 96-well plate. The cells are incubated at 37° C. for 22 h.
Prior to the completion of the incubation period, compound dilutions are prepared. Five-point, five-fold serial dilutions are prepared in DMSO, at concentrations 400-fold greater than the final concentrations desired. 2.5 μL of each compound dilution are diluted further in a total of 1 mL DMEM+10% FBS+antibiotics (400× dilution). Medium containing 0.25% DMSO is also prepared for the 0 μM compound sample. After 22-h, the medium is removed from the cells, and 100 μL of each compound dilution is added. The cells are incubated at 37° C. for 2-3 h.
During the compound pre-incubation period, the growth factors are diluted to the appropriate concentrations. Solutions of DMEM+10% FBS+antibiotics, containing either VEGF or bFGF at the following concentrations: 50, 10, 2, 0.4, 0.08, and 0 ng/mL are prepared. For the compound-treated cells, solutions of VEGF at 550 ng/mL or bFGF at 220 ng/mL for 50 ng/mL or 20 ng/mL final concentrations, respectively, are prepared since 10 μL of each will be added to the cells (110 μL final volume). At the appropriate time after adding the compounds, the growth factors are added. VEGF is added to one set of plates, while bFGF is added to another set of plates. For the growth factor control curves, the media on wells B4-G6 of plates 1 and 2 are replaced with media containing VEGF or bFGF at the varying concentrations (50-0 ng/mL). The cells are incubated at 37° C. for an additional 72 h.
At the completion of the 72 h incubation period, the medium is removed, and the cells are washed twice with PBS. After the second wash with PBS, the plates are tapped gently to remove excess PBS, and the cells are placed at −70° C. for at least 30 min. […] Raw data are collected and analyzed using a 4-parameter fit equation in XLFit. IC50 values are then determined.

For `CNC(=O)c1cc(Oc2ccc3[nH]c(Nc4ccc(C(F)(F)C(F)(F)F)c(OC[C@H]5CCCN5C)c4)nc3c2)ccn1` [Example 6, R-4-{2-[3-(1-Methyl-pyrrolidin-2-ylmethoxy)-4-pentafluoroethyl-phenylamino]-1H-benzimidazol-5-yloxy}-pyridine-2-carboxylic acid methylamide], the IC50 is less than 100 nM. In the case of `CNC(=O)c1cc(Oc2ccc3[nH]c(Nc4ccc(C(F)(F)F)c(OCCN(C)C)c4)nc3c2)ccn1` [Example 13a] it was less than 100 nM; in that of `CNC(=O)c1cc(Oc2ccc3[nH]c(Nc4ccc(C(F)(F)F)c(OCC5CCCN5C)c4)nc3c2)ccn1` (stereo not drawn) [Example 13c], less than 100 nM.

Regarding `CNC(=O)c1cc(Oc2ccc3c(c2)nc(Nc2ccc(Cl)c(CN4CCN(C)CC4)c2)n3C)ccn1` [Example 17, 4-{2-[4-Chloro-3-(4-methyl-piperazin-1-ylmethyl)-phenylamino]-1-methyl-1H-benzimidazol-5-yloxy}-pyridine-2-carboxylic acid methylamide], the IC50 was less than 100 nM. In the case of `CN1CCN(Cc2cc(Nc3nc4cc(Oc5ccnc6ccccc56)ccc4[nH]3)ccc2Cl)CC1` [Example 28, [4-Chloro-3-(4-methyl-piperazin-1-ylmethyl)-phenyl]-[5-(quinolin-4-yloxy)-1H-benzimidazol-2-yl]-amine] it was less than 100 nM; in that of `CN1CCC[C@@H]1COc1cc(Nc2nc3cc(Oc4ccnc5ccccc45)ccc3[nH]2)ccc1C(F)(F)F` [Example 29, [3-(1-Methyl-pyrrolidin-2-ylmethoxy)-4-trifluoromethyl-phenyl]-[5-(quinolin-4-yloxy)-1H-benzimidazol-2-yl]-amine], less than 100 nM; in that of `CNC(=O)c1cc(Oc2ccc3oc(Nc4ccc(Cl)c(CN5CCN(C)CC5)c4)nc3c2)ccn1` [Example 32, 4-{2-[4-Chloro-3-(4-methyl-piperazin-1-ylmethyl)-phenylamino]-benzoxazol-5-yloxy}-pyridine-2-carboxylic acid methylamide], less than 100 nM. Take `CNC(=O)c1cc(Oc2ccc3oc(Nc4ccc(Br)cc4)nc3c2)ccn1` [Example 38]: the IC50 was less than 100 nM. In the case of `CNC(=O)c1cc(Oc2ccc3oc(Nc4ccc(C(C)C)cc4)nc3c2)ccn1` [Example 39] it was less than 100 nM. In the case of `COc1cc2nccc(Oc3ccc4oc(Nc5ccc(Cl)c(CN6CCN(C)CC6)c5)nc4c3)c2cc1OC` [Example 45, 5-((6,7-bis(Methoxy)-4-quinolinyl)oxy)-N-(4-chloro-3-((4-methyl-1-piperazinyl)methyl)phenyl)-1,3-benzoxazol-2-amine] it was less than 100 nM; in that of `CN1CCN(Cc2cc(Nc3nc4cc(Oc5ccnc6[nH]ccc56)ccc4o3)ccc2Cl)CC1` [Example 46, N-(4-Chloro-3-((4-methyl-1-piperazinyl)methyl)phenyl)-5-(1H-pyrrolo[2,3-b]pyridin-4-yloxy)-1,3-benzoxazol-2-amine], less than 100 nM.

For `CN1CCC[C@H]1COc1cc(Nc2nc3cc(Oc4ccnc5[nH]ccc45)ccc3o2)ccc1Cl` [Example 47, N-(4-Chloro-3-(((2S)-1-methyl-2-pyrrolidinyl)methoxy)phenyl)-5-(1H-pyrrolo[2,3-b]pyridin-4-yloxy)-1,3-benzoxazol-2-amine], the IC50 was less than 100 nM. Consider `CNC(=O)c1cc(Oc2cc(F)c3oc(Nc4ccc(Cl)c(OC[C@@H]5CCCN5C)c4)nc3c2)ccn1` [Example 49, 4-((2-((4-Chloro-3-(((2S)-1-methyl-2-pyrrolidinyl)methoxy)phenyl)amino)-7-fluoro-1,3-benzoxazol-5-yl)oxy)-N-methyl-2-pyridinecarboxamide], for which the IC50 was less than 100 nM. The value for `COc1cc2nccc(Oc3ccc4[nH]c(Nc5ccc(Cl)c(CN6CCN(C)CC6)c5)nc4c3)c2cc1OC` [Example 236, [4-Chloro-3-(4-methylpiperazin-1-ylmethyl)-phenyl]-[5-(6,7-dimethoxyquinolin-4-yloxy)-1H-benzimidazol-2-yl]-amine] was less than 100 nM; that for `COc1cc2ncnc(Oc3ccc4[nH]c(Nc5ccc(Cl)cc5)nc4c3)c2cc1OC` [Example 237, (4-Chlorophenyl)-[5-(6,7-dimethoxyquinazolin-4-yloxy)-1H-benzimidazol-2-yl]-amine] was less than 100 nM.

`COc1cc2ncnc(Oc3ccc4[nH]c(Nc5ccc(Cl)c(OCC6CCN(C)CC6)c5)nc4c3)c2cc1OC` [Example 238, [4-Chloro-3-(1-methylpiperidin-4-ylmethoxy)-phenyl]-[5-(6,7-dimethoxyquinazolin-4-yloxy)-1H-benzimidazol-2-yl]-amine]: the IC50 was less than 100 nM. With `CNc1cc(Oc2ccc3oc(Nc4ccc(Cl)c(OC[C@@H]5CCCN5C)c4)nc3c2)ccn1` [Example 239, [4-Chloro-3-((2S)-1-methylpyrrolidin-2-ylmethoxy)-phenyl]-[5-(2-methylamino-pyridin-4-yloxy)-benzoxazol-2-yl]-amine], the IC50 was less than 100 nM. In the case of `CN1CCC[C@H]1COc1cc(Nc2nc3cc(Oc4ccnc(C(N)=O)c4)ccc3o2)ccc1Cl` [Example 240, 4-{2-[4-Chloro-3-((2S)-1-methylpyrrolidin-2-ylmethoxy)-phenylamino]-benzoxazol-5-yloxy}-pyridine-2-carboxylic acid amide] it was less than 100 nM; in that of `CNC(=O)c1cc(Oc2ccc3oc(Nc4ccc(Cl)c(OCC5CCN(C)CC5)c4)nc3c2)ccn1` [Example 242, 4-{2-[4-Chloro-3-(1-methylpiperidin-4-ylmethoxy)-phenylamino]-benzoxazol-5-yloxy}-pyridine-2-carboxylic acid methylamide], less than 100 nM. In the case of `CNC(=O)c1cc(Oc2ccc3oc(Nc4ccc(Cl)c(OCC5CCNCC5)c4)nc3c2)ccn1` [Example 243, 4-{2-[4-Chloro-3-(piperidin-4-ylmethoxy)-phenylamino]-benzoxazol-5-yloxy}-pyridine-2-carboxylic acid methylamide] it was less than 100 nM; in that of `CNC(=O)c1cc(Oc2ccc3oc(Nc4ccc(Cl)c(OCC5CCN(C(C)C)CC5)c4)nc3c2)ccn1` [Example 244, 4-{2-[4-Chloro-3-(1-isopropylpiperidin-4-ylmethoxy)-phenylamino]-benzoxazol-5-yloxy}-pyridine-2-carboxylic acid methyl amide], less than 100 nM. Take `CNC(=O)c1cc(Oc2cc(Cl)c3oc(Nc4ccc(Cl)c(CN5CCN(C)CC5)c4)nc3c2)ccn1` [Example 245, 4-{7-Chloro-2-[4-chloro-3-(4-methyl-piperazin-1-ylmethyl)-phenylamino]-benzoxazol-5-yloxy}-pyridine-2-carboxylic acid methyl amide]: the IC50 was less than 100 nM.

With `CNC(=O)c1cc(Oc2ccc3oc(Nc4ccc(Cl)c(CN5CCN(CCN(C)C)CC5)c4)nc3c2)ccn1` [Example 246, 4-[2-{4-Chloro-3-[4-(2-dimethylamino-ethyl)-piperazin-1-ylmethyl]-phenylamino}-benzoxazol-5-yloxy)-pyridine-2-carboxylic acid methylamide], the IC50 is less than 100 nM. In the case of `CC(C)N1CCC[C@H]1COc1cc(Nc2nc3cc(Oc4ccnc5[nH]ccc45)ccc3o2)ccc1Cl` [Example 247, S-[4-Chloro-3-(1-isopropylpyrrolidin-2-ylmethoxy)-phenyl]-[5-(1H-pyrrolo[2,3-b]pyridin-4-yloxy)-benzoxazol-2-yl]-amine] it was less than 100 nM; in that of `CCN(CC)CCOc1cc(Nc2nc3cc(Oc4ccnc(C(=O)NC)c4)ccc3o2)ccc1Cl` [Example 248, 4-{2-[4-Chloro-3-(2-diethylamino-ethoxy)-phenylamino]-benzoxazol-5-yloxy}-pyridine-2-carboxylic acid methylamine], less than 100 nM; in that of `CNC(=O)c1cc(Oc2ccc3oc(Nc4ccc(Cl)c(OCCN(C)C)c4)nc3c2)ccn1` [Example 249, 4-{2-[4-Chloro-3-(2-dimethylamino-ethoxy)-phenylamino]-benzoxazol-5-yloxy}-pyridine-2-carboxylic acid methylamide], less than 100 nM. In the case of `CNC(=O)c1cc(Oc2ccc3oc(Nc4ccc(Cl)c(OC[C@@H]5CCCN5C(C)C)c4)nc3c2)ccn1` [Example 252, 4-{2-[4-Chloro-3-((2S)-1-isopropyl-pyrrolidin-2-ylmethoxy)-phenylamino]-benzooxazol-5-yloxy}-pyridine-2-carboxilic acid methylamide] it was less than 100 nM.
